{"source": "patent US20110301079A1", "about": "“NEUROMEDIN U RECEPTOR AGONISTS AND USES THEREOF” (Instituto di Ricerche di Biologia Molecolare P. Angeletti …, priority 2007, published 2011)", "key": {"dog NMUR2": {"molecular_target": "T1, dog NMUR2 (Canis lupus familiaris, UniProt A0A8I3MN59)", "T1 construct": "expressed in transfected cells", "T1 sequence (A0A8I3MN59 1-378)": "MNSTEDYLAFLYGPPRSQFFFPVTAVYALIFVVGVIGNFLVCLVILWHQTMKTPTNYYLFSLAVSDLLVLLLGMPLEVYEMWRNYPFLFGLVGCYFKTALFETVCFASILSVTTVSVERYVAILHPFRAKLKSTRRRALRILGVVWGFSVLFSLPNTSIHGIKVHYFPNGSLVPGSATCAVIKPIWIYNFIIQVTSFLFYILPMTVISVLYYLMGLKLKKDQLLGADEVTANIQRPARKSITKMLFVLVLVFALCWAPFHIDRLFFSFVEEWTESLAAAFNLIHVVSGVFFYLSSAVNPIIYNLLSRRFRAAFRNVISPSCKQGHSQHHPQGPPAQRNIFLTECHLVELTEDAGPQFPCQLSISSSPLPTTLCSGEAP", "test": "FLIPR calcium mobilization assay, dog NMUR2 cell line", "assay_type": "cell-based", "source_text": "(§1) Human, mouse or rat cDNAs encoding NMUR1 or NMUR2 (as described in Howard et al. Nature 406: 70-74 (2000) were subcloned in pcDNA5 (Invitrogen) and transfected into FLP-In CHO cells and HEK-293 FLP-In cells purchased from Invitrogen (Carlsbad, Calif.) using lipofectamine (Invitrogen). The Flp-In system allows integration and expression of a particular gene of interest at a specific genomic location utilizing the Flp recombinase from yeast. The transfected cells were selected by growth in medium containing 200 μg/mL hygromycin (Invitrogen). Populations were frozen at early passage numbers, and these stocks were used for further studies. Stable clones that expressed the mRNAs were identified functionally by FLIPR as well as by RT-PCR. […] Two different rodent NMUR1 cell lines were thus generated: one with the codon as predicted from the genomic databases and another cell line with an engineered methionine (ATG) as the start codon. The dog NMU receptors were also cloned from intestine RNA (NMUR1) and brain (NMUR2) and stable cell lines were generated as used for the human and rodent cell lines. […] To ensure high levels of expression in a heterologous system, a dog NMUR1 cell line was generated that contains an ATG as the start codon. Additionally, stable cell lines expressing the human receptors were generated in HEK-293/aeq 17 cells which stably express the aequorin gene under the CMV promoter. The human NMUR2 cDNA was cloned into pcDNA3.1 and human NMUR1 was subcloned into pIRES-puro (Clontech, Mountain View, Calif.), after transfection cells were selected in media containing G418 and either hygromycin (NMUR2) or puromycin (NMUR1).\n(§2) The NMU receptors signal primarily through Gαq/11 proteins; therefore calcium mobilization assays can be utilized for functional activity.\n(§3) Stable cell lines expressing human and or rodent NMUR1 or human NMUR2 receptors are plated at a density of 12,000 cells per well overnight on poly-lysine coated 384-well black-walled plates. The following day, the media is removed from the plates and the cells were subsequently loaded with Fluo-3 (Molecular Probes), a calcium sensitive dye, diluted in FLIPR buffer (1× Hank's buffered saline containing 20 mM HEPES, 0.1% BSA, 2.5 mM probenecid (Sigma) and 1.6 mM TR40). All reagents are from Invitrogen unless otherwise noted. Peptide stocks are resuspended in DMSO at a stock concentration of 2 mM and diluted in FLIPR buffer on the day of the experiment to a 4 μM working stock solution.\n(§4) After a 90 minute incubation at room-temperature, cell plates are loaded onto a FLIPR (Molecular Devices) to monitor cellular fluorescence (excitation=488 nm; emission=540 nm) before and after compound/peptide addition. Eight to twelve point dose responses are tested on NMUR-expressing cell lines using FLIPR with 1 μM peptide as the highest dose. The response after peptide addition is taken as the maximum fluorescence units minus the fluorescence immediately prior to stimulation for each well. EC50 values are calculated using GraphPad Prism (San Diego, Calif.) software.\n(§5) Percent activity refers to the maximum response at 1 μM compared to the human NMU-25 response at the same concentration."}, "[1]": {"test": "Pharmacokinetic analysis using the FLIPR-based bioassay of plasma", "assay_type": "in vivo", "details": "mice, 10 mg/kg subcutaneously, FIG. 5", "method": "Peptide exposure levels in dosed animals were measured using the bioassay. Animals were dosed subcutaneously and plasma was collected at various time points post-dose. The bioassay is a FLIPR-based assay that measures the concentration of peptide in plasma from animals dosed with hNMU-25 or NMS. The assay is run essentially as described above (Example 2) with the following modifications: sample preparation prior to the assay is performed on ice to minimize degradation of plasma samples. The assay was run with 4% plasma as the final concentration. A three-point titration was done with the dosed plasma and tested on human NMUR1-expressing cell lines using FLIPR. The response after sample addition was taken as the maximum fluorescence units minus the fluorescence immediately prior to stimulation for each well. In addition to a three-point titration of dosed plasma samples, a 16-point titration of the peptide (hNMU-25 or NMS) was run in 4% plasma (naive plasma) to serve as the standard. The concentration of the peptide in plasma was calculated based on extrapolations from the appropriate standard using the GraphPad Prism software.\nIn the experiment, the animals were dosed subcutaneously with 10 mg/kg of human NMU-25 or human NMS and plasma was collected at various time points post dose and measured in the Bioassay. […]"}, "[2]": {"system": "male C57BL/6 diet-induced obese mice", "test": "Intraperitoneal glucose tolerance test (IPGTT)", "assay_type": "in vivo", "details": "one and three mpk injected 30 minutes before IPGTT, glucose 2 g/kg i.p., either dosage level", "method": "Fourteen male C57BL/6 diet-induced obese mice (˜30 wk age) were used. Five hours before the experiment, food was removed, and clean cages were provided. Saline with or without NMS at one and three mpk were injected 30 minutes before the IPGTT and a blood sample was taken. Then glucose (2 g/kg) was injected intraperitoneally. Blood samples were taken after 15, 30, 60, 90, and 120 minutes and glucose levels were determined with the glucose oxidase method."}, "mouse NMUR1-ATG": {"molecular_target": "T2, mouse NMUR1-ATG (Mus musculus, UniProt O55040)", "T2 construct": "expressed in transfected cells; host or cells: FLP-In CHO cells and HEK-293 FLP-In cells (pcDNA5)", "T2 sequence (O55040 1-428)": "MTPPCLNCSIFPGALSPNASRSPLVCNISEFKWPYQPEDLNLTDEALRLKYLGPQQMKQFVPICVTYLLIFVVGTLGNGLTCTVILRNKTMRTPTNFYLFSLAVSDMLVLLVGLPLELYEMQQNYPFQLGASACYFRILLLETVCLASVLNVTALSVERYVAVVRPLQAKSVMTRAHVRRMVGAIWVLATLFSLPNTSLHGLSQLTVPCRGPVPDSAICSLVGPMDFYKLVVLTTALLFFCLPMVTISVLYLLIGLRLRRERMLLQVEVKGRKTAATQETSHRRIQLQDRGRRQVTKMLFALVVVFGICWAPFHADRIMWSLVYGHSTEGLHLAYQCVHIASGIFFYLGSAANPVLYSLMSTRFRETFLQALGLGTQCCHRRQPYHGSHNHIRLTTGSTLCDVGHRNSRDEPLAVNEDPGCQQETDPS", "test": "FLIPR calcium mobilization assay, mouse NMUR1-ATG cell line", "assay_type": "cell-based", "source_text": "as §1, §2, §3, §4, §5"}, "mouse NMUR2": {"molecular_target": "T3, mouse NMUR2 (Mus musculus, UniProt Q8BZ39)", "T3 construct": "expressed in transfected cells; host or cells: FLP-In CHO cells and HEK-293 FLP-In cells (pcDNA5)", "T3 sequence (Q8BZ39 whole entry)": "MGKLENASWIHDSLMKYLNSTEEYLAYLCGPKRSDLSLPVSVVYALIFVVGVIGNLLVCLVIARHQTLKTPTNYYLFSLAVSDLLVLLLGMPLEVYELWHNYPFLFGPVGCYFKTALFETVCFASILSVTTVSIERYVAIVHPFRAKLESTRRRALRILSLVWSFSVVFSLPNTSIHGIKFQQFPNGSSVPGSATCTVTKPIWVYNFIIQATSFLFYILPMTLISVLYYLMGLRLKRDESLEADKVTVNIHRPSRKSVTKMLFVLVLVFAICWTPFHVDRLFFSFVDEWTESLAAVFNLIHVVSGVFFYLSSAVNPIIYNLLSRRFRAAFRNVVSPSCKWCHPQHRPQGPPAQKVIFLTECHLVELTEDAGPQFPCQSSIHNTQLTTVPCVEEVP", "test": "FLIPR calcium mobilization assay, mouse NMUR2 cell line", "assay_type": "cell-based", "source_text": "as §1, §2, §3, §4, §5"}, "dog NMUR1-ATG": {"system": "dog NMUR1-ATG", "test": "FLIPR calcium mobilization assay, dog NMUR1-ATG cell line", "assay_type": "cell-based", "source_text": "as §1, §2, §3, §4, §5"}, "[3]": {"details": "maximum response at 1 μM compared to the human NMU-25 response at the same concentration"}}}
{"substance": "H-ILQRGSGTAAVDFTKKDHTATWGRPFFLFRPRN-NH2 [NMS, reference compound]", "values": [{"measurement": "EC50", "setting": "dog NMUR2; dog NMUR2, FLIPR", "result": 1, "unit": "nM"}, {"measurement": "% Activity", "setting": "dog NMUR2; dog NMUR2, maximum response at 1 μM compared to the human NMU-25 response at the same concentration", "result": 104, "unit": "%"}, {"measurement": "metabolic stability in vivo compared to NMU", "setting": "[1]", "result": "greater metabolic stability"}, {"measurement": "glucose metabolism (IPGTT)", "setting": "[2]", "result": "enhanced glucose metabolism"}, {"measurement": "EC50", "setting": "mouse NMUR1-ATG; FLIPR", "result": 7, "unit": "nM"}, {"measurement": "% Activity", "setting": "mouse NMUR1-ATG; [3]", "result": 102, "unit": "%"}, {"measurement": "EC50", "setting": "mouse NMUR2; mouse NMUR2, FLIPR", "result": 7.8, "unit": "nM"}, {"measurement": "% Activity", "setting": "mouse NMUR2; mouse NMUR2, maximum response at 1 μM compared to the human NMU-25 response at the same concentration", "result": 111, "unit": "%"}, {"measurement": "EC50", "setting": "dog NMUR1-ATG; FLIPR", "result": 4.4, "unit": "nM"}, {"measurement": "% Activity", "setting": "dog NMUR1-ATG; [3]", "result": 100, "unit": "%"}]}
